Target: T1, MAGE-A11:PCF11 interaction (GST-MAGE-A11 and FAM-PCF11_4) (Homo sapiens, UniProt P43364)
T1 construct: GST-MAGE-A11 MHD (human MAGE-A11 MHD amino acid 218-429); made in house; host or cells: E. coli BL21(DE3)
T1 sequence (P43364 218-429): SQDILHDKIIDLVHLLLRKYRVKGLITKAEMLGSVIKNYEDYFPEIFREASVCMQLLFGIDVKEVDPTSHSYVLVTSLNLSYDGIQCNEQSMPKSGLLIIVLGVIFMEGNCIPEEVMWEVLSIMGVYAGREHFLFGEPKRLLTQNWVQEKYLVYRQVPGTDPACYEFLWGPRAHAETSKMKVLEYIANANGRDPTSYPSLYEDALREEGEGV
Assay: TR-FRET primary / single point screen at 15 µM
Type: binding
Method in brief: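 Single-point screen at 15 µM final compound in 50 mM Tris pH 7.5, 20 mM MgCl2, 0.1 mg/ml BSA, 1 mM DTT, with 200 nM FAM-PCF11_4, 5 nM Tb-anti-GST and 5 nM GST-MAGE-A11. After 90 min at room temperature, the 520/490 nm TR-FRET ratio (340 nm excitation) gave %Inhibition against no-MAGE-A11 and DMSO controls.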

[1] = single point TR-FRET screening of 797 quinoline compounds against MAGE-A11:PCF11
[2] = single point TR-FRET screening of quinoline compounds against MAGE-A11:PCF11, 15 µM

SMILES | percent inhibition (TR-FRET) [1] | percent inhibition (TR-FRET) [2]
C#CCOCC(O)CN1CCN(c2cc(C(F)(F)F)nc3ccccc23)CC1 (stereo not shown) [SJ000228018] | -9.5157 | 
O=S(=O)(c1ccccc1)c1cnc2ccc(Cl)cc2c1N1CCN(Cc2ccccc2)CC1 [SJ000247242] | -30.2832 | 
COc1ccc2ncc(S(=O)(=O)c3ccccc3)c(N3CCN(Cc4ccccc4)CC3)c2c1 [SJ000247248] | -71.1577 | 
CCOc1ccc2ncc(S(=O)(=O)c3ccccc3)c(N3CCN(Cc4ccccc4)CC3)c2c1 [SJ000247249] | -15.9076 | 
Cc1ccc2ncc(S(=O)(=O)c3ccccc3)c(N3CCN(Cc4ccccc4)CC3)c2c1 [SJ000247256] | 2.673 | 
O=S(=O)(c1ccccc1)c1cnc2ccc(F)cc2c1N1CCN(Cc2ccccc2)CC1 [SJ000247257] | -62.2806 | 
CN1CCN(c2c(S(=O)(=O)c3ccc(Cl)cc3)cnc3ccccc23)CC1 [SJ000247306] | -10.1441 | 
CCc1ccc2ncc(S(=O)(=O)c3ccc(C)c(C)c3)c(N3CCN(CC)CC3)c2c1 [SJ000247334] | -4.712 | 
CCN1CCN(c2c(S(=O)(=O)c3ccc(C)c(C)c3)cnc3ccc(F)cc23)CC1 [SJ000247345] | 1.118 | 
CCN1CCN(c2c(S(=O)(=O)c3ccc(Cl)cc3)cnc3ccccc23)CC1 [SJ000247367] | -2.261 | 
CCOC(=O)c1cnc2c(Cl)cccc2c1NCCCN1CCOCC1 [SJ000279431] |  | 4.102
CCOC(=O)c1cnc2c(C)cccc2c1NCCCN1CCOCC1 [SJ000279636] |  | 3.353
CCOC(=O)c1cnc2c(CC)cccc2c1NCCN1CCOCC1 [SJ000279714] | -6.103 | 
CCOC(=O)c1cnc2c(C(F)(F)F)cccc2c1NCCN1CCOCC1 [SJ000281260] | 0.8341 | 
CCN(CC)CCCC(C)Nc1ccnc2cc(Cl)ccc12 (stereo not shown) [SJ000285185] | -2.592 | 
CCN(CC)CCCC(C)Nc1c2ccc(Cl)cc2nc2ccc(OC)cc12 (stereo not shown) [SJ000285202] | -265.674 | 
CCN(CCO)CCCC(C)Nc1ccnc2cc(Cl)ccc12 (stereo not shown) [SJ000286026] | 3.702 | 
Clc1ccc2c(NC3CCN(Cc4ccc(Cl)o4)CC3)ccnc2c1 [SJ000311180] | 0.6827 | 
Oc1ccc(Br)cc1CN1CCC(Nc2ccnc3cc(Cl)ccc23)CC1 [SJ000311181] | -1.209 | 
Clc1ccc2c(NCCCN(Cc3ccccc3)CC3CC=CCC3)ccnc2c1 (stereo not shown) [SJ000311182] |  | 16.0865
CC(C)CCN(CCCNc1ccnc2cc(Cl)ccc12)Cc1ccccc1 [SJ000311183] |  | 2.673
CC(CCN(CCCNc1ccnc2cc(Cl)ccc12)Cc1ccccc1)c1ccccc1 (stereo not shown) [SJ000311184] |  | 17.3464
Cc1ccsc1CNCCCNc1ccnc2cc(Cl)ccc12 [SJ000311189] |  | 6.554
Cc1ccc(CNCCCNc2ccnc3cc(Cl)ccc23)s1 [SJ000311190] |  | 10.8349
CCCN(CCCNc1ccnc2cc(Cl)ccc12)Cc1ccc(Br)o1 [SJ000311195] |  | 14.4758
CCCN(CCCCNc1ccnc2cc(Cl)ccc12)Cc1cc(Br)ccc1O [SJ000311196] | 5.724 | 
CCCN(CCCCNc1ccnc2cc(Cl)ccc12)CCCSC [SJ000311197] | 3.903 | 

Continued, values first:

percent inhibition (TR-FRET) [1] | percent inhibition (TR-FRET) [2] | SMILES
-9.084 |  | CCOc1ccc2ncc(C(=O)c3ccc(OC)cc3)c(N3CCN(CC)CC3)c2c1 [SJ000247243]
-2.393 |  | COc1ccc2ncc(C(=O)c3ccccc3)c(N3CCN(C)CC3)c2c1 [SJ000247245]
-10.6078 |  | CCOc1ccc2ncc(C(=O)c3ccc(C)cc3)c(N3CCN(C)CC3)c2c1 [SJ000247254]
-13.5889 |  | Cc1ccc(S(=O)(=O)c2cnc3ccccc3c2N2CCN(C)CC2)cc1 [SJ000247268]
-18.955 |  | CCOc1ccc2ncc(C(=O)c3ccc(OC)cc3)c(N3CCN(C)CC3)c2c1 [SJ000247277]
-2.261 |  | CCc1ccc2ncc(C(=O)c3ccccc3)c(N3CCN(CC)CC3)c2c1 [SJ000247281]
3.9003 |  | CCN1CCN(c2c(C(=O)c3ccc(C)cc3)cnc3ccc(OC)cc23)CC1 [SJ000247282]
-0.2733 |  | CCOc1ccc2ncc(C(=O)c3ccccc3)c(N3CCN(CC)CC3)c2c1 [SJ000247283]
-14.2514 |  | CCOc1ccc2ncc(C(=O)c3ccc(C)cc3)c(N3CCN(CC)CC3)c2c1 [SJ000247284]
2.973 |  | CCc1ccc2ncc(S(=O)(=O)c3ccc(C)c(C)c3)c(N3CCN(C)CC3)c2c1 [SJ000247332]
-8.554 |  | COc1ccc2ncc(S(=O)(=O)c3ccc(C)c(C)c3)c(N3CCN(C)CC3)c2c1 [SJ000247333]
-4.579 |  | CCN1CCN(c2c(S(=O)(=O)c3ccc(C)c(C)c3)cnc3ccc(OC)cc23)CC1 [SJ000247335]
-5.573 |  | CN1CCN(c2c(C(=O)c3ccccc3)cnc3ccc(Cl)cc23)CC1 [SJ000247338]
-10.8066 |  | CCOc1ccc(C(=O)c2cnc3ccc(C)cc3c2N2CCN(CC)CC2)cc1 [SJ000247339]
-7.6267 |  | Cc1ccc(S(=O)(=O)c2cnc3ccc(F)cc3c2N2CCN(C)CC2)cc1C [SJ000247344]
-14.0527 |  | CCOc1ccc2ncc(S(=O)(=O)c3ccc(C)c(C)c3)c(N3CCN(C)CC3)c2c1 [SJ000247354]
-13.3902 |  | CCOc1ccc2ncc(S(=O)(=O)c3ccc(C)c(C)c3)c(N3CCN(CC)CC3)c2c1 [SJ000247355]
-0.2733 |  | CCN1CCN(c2c(C(=O)c3ccccc3)cnc3ccc(OC)cc23)CC1 [SJ000247365]
11.585 |  | CCc1ccc(S(=O)(=O)c2cnc3ccccc3c2N2CCN(C)CC2)cc1 [SJ000278939]
-2.791 |  | CCOC(=O)c1cnc2ccc(OC)cc2c1N1CCN(C)CC1 [SJ000279507]
 | 5.532 | CCOC(=O)c1cnc2ccc(OCC)cc2c1NCCCN1CCOCC1 [SJ000279525]
-7.064 |  | CCOC(=O)c1cnc2ccc(OCC)cc2c1N1CCN(C)CC1 [SJ000279526]
 | 10.7073 | CCOC(=O)c1cnc2ccc(C(=O)OC)cc2c1NCCCN1CCOCC1 [SJ000279665]
 | -0.3915 | CCOC(=O)c1cnc2ccc(F)cc2c1NCCCN1CCOCC1 [SJ000279864]
-0.5958 |  | CCOC(=O)c1cnc2ccc(C(=O)O)cc2c1N1CCN(CCO)CC1 [SJ000280902]

Reference: publication PMC7529893, “Structural basis for substrate recognition and chemical inhibition of oncogenic MAGE ubiquitin ligases” (Nature Communications, 2020)
